We go through ten compounds from US6008220A, “Aromatic keto-acids and their derivatives as inhibitors of matrix metalloproteinases” (priority 1998, dated 1999).

Test [1] concerns the target GCD (recombinant gelatinase A catalytic domain). As to the kind of experiment: Inhibition of recombinant gelatinase A catalytic domain (GCD), thiopeptolide substrate Ac-Pro-Leu-Gly-thioester-Leu-Leu-Gly-OEt. The class given is biochemical. Here is the method:
Experiments were carried out with the catalytic domains of the proteinases.

Test [2] addresses SCD (stromelysin-1 catalytic domain) (Homo sapiens, UniProt P08254). As to the kind of experiment: Inhibition of stromelysin-1 catalytic domain (SCD), thiopeptolide substrate Ac-Pro-Leu-Gly-thioester-Leu-Leu-Gly-OEt. The class given is biochemical. Here is the method: Experiments were carried out with the catalytic domains of the proteinases. […] IC50 values were determined using a thiopeptolide substrate, Ac-Pro-Leu-Gly-thioester-Leu-Leu-Gly-OEt (Ye Q.-Z., Johnson L. L., Hupe D. J., and Baragi V., "Purification and Characterization of the Human Stromelysin Catalytic Domain Expressed in Escherichia coli", Biochemistry, 1992;31:11231-11235).

In test [3] the test system is human ovarian carcinoma xenografts. As to conditions: mice bearing human ovarian carcinoma xenografts; cited from earlier work. (A xenograft is tissue or cells of one species grown in another, often human tumour cells in immunodeficient mice.)
Test [4] concerns experimental allergic encephalomyelitis (EAE). As to conditions: dose dependent; cited from earlier work.
Test [5] relates to bovine nasal cartilage. As to conditions: cited from earlier work.
The test system of test [6] is pig articular cartilage. As to conditions: cited from earlier work.

Where a name gives a salt, the structure may show the parent alone. Read-outs that look alike come from different tables or passages of the source.

SCD (stromelysin-1 catalytic domain), sequence (P08254 100-272 limits assumed): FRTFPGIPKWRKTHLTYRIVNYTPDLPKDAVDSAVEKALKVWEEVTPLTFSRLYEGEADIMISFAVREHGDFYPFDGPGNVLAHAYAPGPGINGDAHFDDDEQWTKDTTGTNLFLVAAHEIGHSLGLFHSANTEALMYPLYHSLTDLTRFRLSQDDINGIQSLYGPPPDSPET

Broadly, the IC50 is the concentration at which inhibition is half-maximal. For the compound `CC(CC(=O)O)CC(=O)c1ccc(N2CCC(c3ccccc3)CC2)cc1` (racemic) [Example 7, (±)3-Methyl-5-oxo-5-[4-(4-phenyl-piperidin-1-yl)-phenyl]-pentanoic acid], the IC50 in test [1] worked out at 14000 nM; in test [2], 400 nM. With `CNC(=O)[C@H](Cc1ccccc1)NC(=O)[C@H](CC(C)C)[C@H](CSc1cccs1)C(=O)NO` [BB-94], in test [3], the survival result is listed as “prolonged the survival” and the tumor burden entry was “decreased the tumor burden”. For the compound `O=C(O)CCC(=O)c1ccc(N2CCC(c3ccccc3)CC2)cc1` [Example 1, 4-Oxo-4-[4-(4-phenyl-piperidin-1-yl)-phenyl]-butyric acid], the 50% inhibitory concentration (IC50) in test [1] is 1300 nM. With `O=C(CCC(=O)c1ccc(N2CCC(c3ccccc3)CC2)cc1)NO` [Example 3, N-Hydroxy-4-oxo-4-[4-(4-phenyl-piperidin-1-yl)-phenyl]-butyramide], the concentration for half-maximal inhibition (IC50) in test [1] was determined as 40 nM. In the case of `O=C(O)CCC(=NO)c1ccc(N2CCC(c3ccccc3)CC2)cc1` [Example 4, E/Z-4-Hydroxyimino-4-[4-(4-phenyl-piperidin-1-yl)-phenyl]-butyric acid], the figures for the 50% inhibitory concentration (IC50) in test [1] and in test [2] were 150 nM and 20 nM, respectively. In the same order, the values of `O=C(O)CCC(=NOCc1ccccc1)c1ccc(N2CCC(c3ccccc3)CC2)cc1` [Example 5, E/Z-4-Benzyloxyimino-4-[4-(4-phenyl-piperidin-1-yl)-phenyl]-butyric acid] are 6300 nM and 2900 nM.

Regarding `O=C(O)CCC(=O)c1ccc(N2CCN(c3ccccc3)CC2)cc1` [Example 6, 4-Oxo-4-[4-(4-phenyl-piperazin-1-yl)-phenyl]-butyric acid], the half-maximal inhibitory concentration (IC50) in test [1] came to 1600 nM.

As for `CNC(=O)[C@H](Cc1c[nH]c2ccccc12)NC(=O)[C@@H](CC(=O)NO)CC(C)C` [GM6001], the “development or clinical expression of EAE” value in test [4] is “suppressed the development or reversed the clinical expression”. `O=C(O)CCC(=O)c1ccc(N2CCC(c3ccccc3)CC2)cc1` [potassium salt]: the IC50 came out at 560 nM in test [1] (potassium salt) and 80 nM in test [2]. As for “TIMP-1: natural endogenous inhibitors of MMPs (TIMPs)”, the “formation of collagen fragments” value in test [5] and in test [6] was “prevented the formation of collagen fragments” in each case. Besides, the “formation of proteoglycan fragments” value in test [5] and in test [6] was “not proteoglycan fragments” in each case.
